Results reported in PMC8910649, “An Efficient Way to Screen Inhibitors of Energy-Coupling Factor (ECF) Transporters in a Bacterial Uptake Assay” (International Journal of Molecular Sciences, 2022).
≈ marks a conversion by molar mass, not a printed value. Read-outs that look alike come from different tables or passages of the source.

What was measured:
ECF FolT2 transporter = conditions: cited from earlier work
ECF FolT transporter = assay: Bacterial (whole-cell) folate uptake assay in L. casei; conditions: for Inhibition at 200 μM: folate import
Experimental: The OD600 was measured in a Nanodrop 2000c spectrophotometer (Thermo Fisher Scientific, Waltham, MA, USA) using half-micro cuvettes. The culture was diluted to OD600 = 0.06 in 25 mL and grown under the same conditions as before for 16 h. The new overnight culture was diluted to OD600 = 0.4 in 25 mL MRS medium and regrown in a 50 mL reaction tube for 2 h under the same conditions. The culture was subsequently centrifuged, washed with 50 mL PBS (50 mM, pH 7.4), centrifuged again, and resuspended in citrate buffer (20 mM, pH 6, 2% D-Glucose, 8 g/L NaCl, 0.2 g/L KCl) while adjusting the OD600 to 0.5. Then, 185 μL of this cell suspension was subsequently distributed on an opaque MultiScreen HTS Filter Plate-GV (Merck KGaA, Darmstadt, Germany). For each plate, two wells containing buffer for blank determination were included. A stock solution of compounds in DMSO (10 μL) was added to the wells and mixed (final DMSO conc. = 5%), followed by a preincubation at RT for 10 min. The solubility of the compounds in citrate buffer was verified in 96-well plates. Poorly soluble compounds were tested at the highest possible concentration. In addition, for each plate, four negative controls containing DMSO instead of inhibitor and a positive control were included. Tritium-labeled folic acid (Moravek Biochemicals, Brea, CA, USA) (5 μL, 2 μM, radioactivity was adjusted to 12.7 Ci/mmol using unlabeled folic acid) was added to the wells leading to a final concentration of 50 nM. The solutions were mixed (final volume 200 μL) as before, and the plate was incubated in a preheated incubator at 30 °C for 30 min. The plate was covered with sealing tape during the incubation steps to avoid evaporation. To stop the reaction, the liquid in the filter plates was removed from the cells by centrifugation (3 min at 1500× g). Subsequently, the cells were washed twice with PBS (10 mM, pH 7.2), followed by centrifugation steps (3 and 5 min at 1500× g). After removal of the underdrain, residual liquid on the bottom of the filters was removed using lint-free paper towels and the plate was dried at 50 °C in the incubator. After 10 min, 30 μL of liquid scintillating fluid was added into each well, the plate was covered with sealing tape and gently vortexed for 5 min. Relative radioactivity was determined for 1 min each well in a Wallac MicroBeta TriLux BetaCounter (Perkin Elmer, Waltham, MA, USA). […] Counts were averaged and after subtraction of the blank, the percentage of inhibition was determined by the following formula: Inh. %=100-x inhibitor/x negative control×100 The data were plotted including standard deviations. IC50 values were determined by plotting percentages of inhibition against the related concentrations and fitting the Origin standard function “Hill1” to the data. The KM was determined by plotting the relative radioactivity against the folic acid concentration and fitting the Origin standard function “Hyperbl” to the data.

[1] = test system: Staphylococcus aureus str. Newman; assay: Antibacterial testing (MIC); assay type: cell-based; conditions: not auxotrophic
Experimental: (§1) Figure S12. Screening a broad library (4−22) against ECF FolT2 transporter in the L. casei bacterial assay. Compou nds colored i n blue s howed inhibiti on bi gger than 20% when tested at 500 µ M.
(§2) Compounds were prepared as DMSO stocks a nd minimum inhibitory concentrations (MIC) were determined as de-scribed elsewhere. Bacteria were handled according to standard procedures and w ere obtained from the Ger man Col-lection of M icroorganisms and Cell Cultures (DSMZ) or were part of our interna l strain collection. In brief, bacterial cultures were diluted in Tryptic Soy Broth (TSB; 1.7% pepto ne casein, 0.3% peptone soymeal, 0.25% glucose, 0.5% NaCl, 0.25% K2HPO4; pH 7.3) or Müller– Hinton br oth (0.2% beef infusion solids, 1.75% casein hydr olysate, 0.15% starch, pH 7.4) to achieve a final inoculum of approximately 10 4 to 105 cfu/mL. Compou nd s were tested in serial dilution (0.06– […]
(§3) Organisms FolT EcfT EcfA1 EcfA2 Figure S13:
(§4) Lactobacillus delbrueckii A0A061BSU4 Q1GBJ0 Q1GBI9 numbers of the […]
(§5) Lactobacillus casei transporter (FolT,

[2] = test system: Streptococcus pneumoniae DSM-11865 (PRSP); assay: Antibacterial testing (MIC); assay type: cell-based; conditions: auxotrophic
Experimental: as §1, §2, §3, §4, §5

[3] = test system: Streptococcus pneumoniae DSM-20566; assay: Antibacterial testing (MIC); assay type: cell-based; conditions: DSM20566; Streptococcus pneumoniae DSM-20566, auxotrophic
Experimental: as §1, §2, §3, §4, §5

[4] = Solubility of the compounds in citrate buffer (assay conditions); assay type: physicochemical
Experimental: The data were analyzed by using OriginPro 2018G (OriginLab Corporation, Northampton, MA, USA).

## O=C(O)c1cc(OCc2cccc3ccccc23)ccc1O [Compound 1, reference compound]
ECF FolT2 transporter; uptake into proteoliposomes, ECF FolT2 from L. delbrueckii
  IC50: 282 ± 108 µM

## O=C(O)CNCc1ccc(-c2ccc(Cl)cc2)o1 [Compound 2]
ECF FolT2 transporter; proteoliposome uptake (in vitro assay, L. delbrueckii)
  IC50: > 1200 µM
ECF FolT transporter; bacterial uptake assay L. casei
  inhibition of folic acid uptake: inactive up to: > 1.2 mM

## O=C(O)c1cccc(NCc2ccc(-c3ccc(Cl)cc3)o2)c1 [Compound 3]
[1]
  MIC: 23 µg/mL (≈ 70.2 µM)
[2]
  MIC: 10 µg/mL (≈ 30.5 µM)
[3]
  MIC: 21 µg/mL (≈ 64.1 µM)
ECF FolT transporter; L. casei based uptake assay
  Inhibition at 200 μM: 43% (IC50 = 204 ± 22 μM)
ECF FolT transporter; bacterial uptake assay, L. casei, 50 nM radiolabeled folic acid
  IC50: 204 ± 22 µM

## O=C(O)c1ccccc1NCc1ccc(-c2ccc(Cl)cc2)o1 [Compound 23]
[4]
  solubility under the conditions of the assay: insoluble
[4]; citrate buffer with 5% DMSO, 96-well plates, pH 6, aqueous with cosolvent or surfactant or cyclodextrin, kinetic from dmso stock, citrate buffer, read-out: solubility limit (not soluble above)
  solubility: ≤ 50 µM
ECF FolT transporter; 50 µM (not soluble above 50 μM), L. casei based uptake assay
  Inhibition at 50 µM: 11% at 50 µM

## O=C(O)c1ccc(NCc2ccc(-c3ccc(Cl)cc3)o2)cc1 [Compound 24]
ECF FolT transporter; 500 μM, L. casei based uptake assay
  Inhibition at 500 μM: n.i at 500 μM (n.i. = no inhibition (if inhibition < 10%))
ECF FolT transporter; up to 500 μM, L. casei uptake assay
  inhibition: no inhibition

## O=C(O)c1cccc(NCc2ccc(-c3cccc(Cl)c3)o2)c1 [Compound 25]
ECF FolT transporter; L. casei based uptake assay
  Inhibition at 200 μM: 41%

## O=C(O)c1cccc(NCc2ccc(-c3ccccc3Cl)o2)c1 [Compound 26]
ECF FolT transporter; L. casei based uptake assay
  Inhibition at 200 μM: 36%

## O=C(O)c1cccc(NCc2cc(-c3ccc(Cl)cc3)co2)c1 [Compound 27]
ECF FolT transporter; L. casei based uptake assay
  Inhibition at 200 μM: 8%

## Nc1nc(=O)c2nc(CNc3ccc(C(=O)N[C@@H](CCC(=O)O)C(=O)O)cc3)cnc2[nH]1 [folic acid]
ECF FolT transporter; read-out: KM of folate uptake, substrate-dependent folate uptake in L. casei, PBS (50 mM, pH 7.4, 2% Glucose)
  Km: 0.049 µM
ECF FolT transporter; substrate-dependent folate uptake in L. casei, PBS (50 mM, pH 7.4, 2% Glucose)
  Vmax of folate uptake: 83 (±2) counts per minute (cpm)
